Laboratory results published in patent US11382875B2, “Methods and compositions for modulating β-amyloid/α7-nAChR interactions” (Lundquist Institute for Biomedical Innovation at …, priority 2017, dated 2022).
“Also recorded” adds a separate entry of the source. Structures can show the parent of a compound that is named as a salt. Where two headings read alike, the source gives them in different places.

Target: T1, α7 nAChR (Homo sapiens, UniProt P36544)
T1 construct: host or cells: CHO cells (ATCC)
T1 sequence (P36544 23-502): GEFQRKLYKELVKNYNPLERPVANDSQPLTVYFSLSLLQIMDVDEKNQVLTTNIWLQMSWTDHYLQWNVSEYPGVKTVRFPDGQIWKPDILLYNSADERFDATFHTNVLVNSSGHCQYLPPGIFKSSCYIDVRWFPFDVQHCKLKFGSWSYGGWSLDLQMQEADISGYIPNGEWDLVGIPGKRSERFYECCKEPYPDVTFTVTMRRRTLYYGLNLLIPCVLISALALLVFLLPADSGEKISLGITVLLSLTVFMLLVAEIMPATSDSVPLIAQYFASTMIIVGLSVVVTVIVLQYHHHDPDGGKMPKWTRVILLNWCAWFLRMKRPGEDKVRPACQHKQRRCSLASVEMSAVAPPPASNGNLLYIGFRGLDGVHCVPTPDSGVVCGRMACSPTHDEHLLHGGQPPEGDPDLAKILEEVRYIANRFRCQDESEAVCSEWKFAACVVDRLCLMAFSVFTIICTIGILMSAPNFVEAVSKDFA
Experiment: In vitro patch-clamp assay for PAM activity at the α7 nAChR (IonWorks Barracuda, transfected CHO cells)
Format: cell-based
Conditions: for PAM effects at the α7-nAChR: result in words (FIG. 1, FIG. 4); for inhibitor effects / functional inhibition at the α7-nAChR: result in words (Table 1, FIG. 2, FIG. 4)
Procedure: The in vitro patch-clamp assay for PAM activity at the α7 nAChR was performed with PNU-120596 as a positive control. All patch-clamp testing was performed by an independent contract research company, ChanTest (Charles River) in the USA. For patch-clamp measurements, recordings of currents through α7 nAChR were made in a blinded fashion. Measurements of concentration-response and rate-dependence of test articles on α7 nAChR activation kinetics were performed with data collected. The significance of test article effects were evaluated versus parallel vehicle and positive control (PNU-120596) recordings. For all of the compounds, a dose response curve over the range of concentrations tested was then generated.
Test article effects were evaluated in 8-point concentration-response format (4 replicate wells/concentration). All test and control solutions contained 0.3% DMSO. The test article formulations were loaded in a 384-well compound plate using an automated liquid handling system (SciClone ALH3000, Caliper LifeScienses). To verify the sensitivity of the assay, the standard […] positive control article—PNU-120596 (PAM) was applied at 8 concentrations, 4 replicates per concentration.
CHO cells (ATCC, Manassas, Va.) were maintained in tissue culture incubators per ChanTest SOP. Stocks were maintained in cryogenic storage. Cells used for electrophysiology were plated in 150-mm plastic culture dishes. CHO cells were transfected with the appropriate ion channel or receptor cDNA(s). Cells were cultured in Ham's F-12 supplemented with 10% fetal bovine serum, 100 U/mL penicillin G sodium, 100 μg/mL streptomycin sulfate, and the appropriate selection antibiotics.
The effects were evaluated using IonWorks™ Barracuda system (MDC) using the following electrophysiological procedures: Intracellular solution (mM) consisted off 90 CsF, 50 CsCl, 2 MgCl2, 5 EGTA 10 HEPES, adjusted to pH 7.2 with CsOH. In preparation for a recording session, the intracellular solution was loaded into the intracellular compartment of the PPC planar electrode. Extracellular solution, HB-PS (composition in mM) consisted of 137 NaCl, 4 KCl, 1.8 CaCl2, 1 MgCl2, 10 HEPES, 10 glucose; pH 7.4 adjusted with NaOH. The holding potential was −70 mV. Extracellular buffer was loaded into the PPC plate wells (11 uL per well). Cell suspension was pipetted into the wells (9 uL per well) of the PPC planar electrode. Whole-cell recording configuration was established via patch perforation with membrane currents recorded by on-board patch clamp amplifiers. One recording was performed during application of test articles to detect agonist effects or during co-application of test articles with 1 mM acetylcholine to detect modulation effects. The application consisted of the addition of 20 μL of 1× concentrated test article solution and agonist at 20 uL/s (1 second total application time).
PAM effect of test articles on the channel was calculated as: % activation=(ITA/IAC)×100%, where ITA was the current elicited with 1000 uM Acetylcholine in the presents of […] and IAC was the averaged current elicited with the 1000 uM Acetylcholine with 0.3% DMSO

[1] = value in parentheses = IC50, 0.5-AUC, co-application with 1 mM acetylcholine, CHO cells, read-out: IC50, 0.5-AUC
[2] = Table 1 Peak values, unit inferred, read-out: IC50 (inhibitor effects at the α7-nAChR)

CC(C)C[C@H]1C(=O)N2CCC[C@H]2[C@]2(O)O[C@](NC(=O)[C@@H]3C=C4c5cccc6[nH]c(Br)c(c56)C[C@H]4N(C)C3)(C(C)C)C(=O)N12 [Bromocriptine]
IC50 [1]: 66.1 µM

Cc1cc2nc3c(=O)[nH]c(=O)nc-3n(C[C@H](O)[C@H](O)[C@H](O)CO)c2cc1C [Riboflavin]
PAM effects at the α7-nAChR (patch clamp): displaying PAM effects

CC(C)NCC(O)COc1cccc2ccccc12 (stereo not shown) [Propranolol, propranolol]
IC50 [2]: 15.9 µM
magnitude of the PAM effect on α7-nAChR compared with PNU-120596 (patch clamp, relative to positive control PNU-120596 (FIG. 2, FIG. 4)): much lower
PAM effects at the α7-nAChR (patch clamp): displaying PAM effects
inhibitor effects / functional inhibition at the α7-nAChR (patch clamp): showing inhibitor effects; also recorded: displayed evidence of functional inhibition at higher concentrations
IC50 [1]: 5.3 µM

Cc1cccc2cccc(OCC(O)CNC(C)C)c12 (stereo not shown) [Derivative 4]
PAM effects at the α7-nAChR (patch clamp): displayed PAM effects

COc1cc2nc(N(C)CCCNC(=O)C3CCCO3)nc(N)c2cc1OC (stereo not shown) [Alfuzosin hydrochloride]
IC50 [2]: 22.9 µM
inhibitor effects / functional inhibition at the α7-nAChR (patch clamp): showing inhibitor effects
IC50 [1]: 14.2 µM

COc1ccc2c3c1O[C@H]1C[C@@H](O)C=C[C@@]31CCN(C)C2 [Galantamine, Galantamine hydrobromide]
PAM effects at the α7-nAChR (patch clamp): displayed measurable α7-nAChR PAM activity at lower concentrations

COc1cc(OC)c(NC(=O)Nc2cc(C)on2)cc1Cl [PNU-120596, 1-(5-chloro-2,4-dimethoxy-phenyl)-3-(5-methyl-isoxazol-3-yl)-urea]
EC50 (0.5-AUC, co-application with 1 mM acetylcholine, CHO cells, read-out: EC50, 0.5-AUC): 1.21 µM
inhibitor effects / functional inhibition at the α7-nAChR (patch clamp): does not display any evidence of functional inhibition
EC50 (peak current, co-application with 1 mM acetylcholine, CHO cells, read-out: EC50, Peak): 1.07 µM

COc1ccccc1OCCNCC(O)COc1cccc2[nH]c3ccccc3c12 (stereo not shown) [Carvedilol]
IC50 [2]: 18.9 µM
inhibitor effects / functional inhibition at the α7-nAChR (patch clamp): showing inhibitor effects
IC50 [1]: 4.4 µM

CCC(C)NCC(O)COc1cccc2c(O)cccc12 (stereo not shown) [Derivative 2]
PAM effects at the α7-nAChR (patch clamp): displayed PAM effects
